In patent publication US6569638B1, “Method for screening compounds for the treatment of neoplasia” (Cell Pathways, Inc, priority 2000, dated 2003):

Key:
[1] = Seven-day dose-range finding study in rats; conditions: seven days
[2] = system: JNK1 in SW480 colon cancer cells; assay: JNK1 immunoprecipitation in vitro kinase assay with GST-c-Jun(1-79); assay type: cell-based, human; conditions: SW480 cells, one hour; sulindac sulfide 50-500 μM, exisulind 100-600 μM, Compound A 0.1-5 μM, Compound B 1-50 μM
Protocol: The cells were lysed, JNK1 immunoprecipitated with an anti-JNK1 antibody, and the immunoprecipitate (“IP”) assayed for in vitro kinase activity with GST-c-Jun(1-79) as the substrate. The experiments were repeated three times with similar results. Fold activation was measured using a Phosphor Imager.
FIG. 1B: SW480 cells were treated with Compound A (1 μM) for the indicated time periods and in vitro JNK1 kinase activity was determined as described above.
FIG. 2A SW480 cells were treated with either DMSO (−) or Compound A, 0.1 μM; dbcGMP, 500 μM; YC-1, 50 μM; MY-5445, 50 μM; dipyridamole, 10 μM or dbcAMP, 500 μM for one hour. The cells were lysed, JNK1 immunoprecipitated, and the IP assayed for in vitro kinase activity as described in FIG. 1A.
FIG. 2B SW480 cells were pre-treated with either DMSO, KT5720 (2 μM) or Rp-8-pCPT-cGMPS (2 μM) for 2 hours and then treated with Compound B (0, 1 or 10 μM) for one hour. The cells were lysed and assayed for JNK1 activation in the IP as described above.
These concentrations were chosen since they provided optimal induction of apoptosis. Endogenous JNK1 was immunoprecipitated with anti-JNK1 antibody and in vitro kinase assays were performed with GST-c-Jun(1-79) as the substrate. […]
However, the precise role of PKG in signal transduction pathways is not known. […] As a control, KT5720 was used as a protein kinase A (“PKA”)-specific inhibitor. SW480 cells were treated with either DMSO, KT5720 (2 μM) or Rp-8-pCPT-cGMPS (2 μM) for 2 hours and then treated with either DMSO or Compound B (1 or 10 μM) for one hour. Cell extracts were collected and assayed for JNK1 activation.

[3] = biological target: T1, GST-cGB-PDE5 fusion protein (cGMP binding sites of human PDE5A) (Homo sapiens, UniProt O76074); assay: cGMP binding assay (3H-cGMP competition); conditions: 3H-cGMP 2 μM, 22° C., 1 hour
T1 construct: made in house; host or cells: E. coli BL21 (DE3)

[4] = system: SW-480 colon adenocarcinoma cells; assay: Apoptosis induction determined by morphology; assay type: cell-based, human
Text: Apoptosis occurs naturally during normal tissue turnover and during embryonic development of organs and limbs. Apoptosis also is induced by cytotoxic T-lymphocytes and natural killer cells, by ionizing radiation and by certain chemotherapeutic drugs. Inappropriate regulation of apoptosis is thought to play an important role in many pathological conditions including cancer, AIDS, or Alzheimer's disease, etc. Compounds can be screened for induction of apoptosis using cultures of tumor cells maintained under conditions as described above. Treatment of cells with test compounds involves either pre- or post-confluent cultures and treatment for two to seven days at various concentrations. Apoptotic cells are measured in both the attached and “floating” compartments of the cultures. Both compartments are collected by removing the supernatant, trypsinizing the attached cells, and combining both preparations following a centrifugation wash step (10 minutes, 2000 rpm). The protocol for treating tumor cell cultures with sulindac and related compounds to obtain a significant amount of apoptosis has been described in the literature. (See, Piazza, G. A., et al., Cancer Research, 55:31 10-16, 1995, which is incorporated herein by reference). The novel features include collecting both floating and attached cells, identification of the optimal treatment times and dose range for observing apoptosis, and identification of optimal cell culture conditions.
Following treatment with a compound, cultures can be assayed for apoptosis and necrosis by florescent microscopy following labeling with acridine orange and ethidium bromide. The method for measuring apoptotic cell number has previously been described by Duke & Cohen, “Morphological And Biochemical Assays Of Apoptosis,” Current Protocols In Immunology, Coligan et al., eds., 3.17.1-3.17.16 (1992, which is incorporated herein by reference).
For example, floating and attached cells can be collected by trypsinization and washed three times in PBS. Aliquots of cells can be centrifuged. […]

caspase-3 in SW480 cells = assay: Caspase-3 activity with Ac-DEVD-AFC substrate; assay type: cell-based, human; conditions: 24 hours, sulindac sulfide 200 μM, exisulind 600 μM, Compound A 1 μM, Compound B 10 μM
Protocol: The cells were lysed and the extracts assayed for caspase-3 activity using Ac-DEVD-AFC as the substrate, in the presence or absence of the caspase-3 inhibitor Ac-DEVD-CHO. Caspase-3 activity was calculated by subtracting the AFC fluorescence (excitation; 400 nm, emission; 505 nm) in the presence of Ac-DEVD-CHO from the AFC fluorescence in the absence of Ac-DEVD-CHO.
Protein extracts were then prepared and caspase-3 activity was measured with Ac-DEVD-AFC as the substrate, in the presence or absence of the caspase-3 inhibitor Ac-DEVD-CHO. […] Similar findings were obtained with HCT116 and HT29 cells (data not shown).

PrEC cells = assay: Histone-associated fragmented DNA (apoptosis) in normal prostate epithelial cells; assay type: cell-based, human; conditions: 50 μM, up to 4 days
Protocol: The androgen-sensitive prostate tumor cell line, LNCaP (from ATCC (Rockville, Md.)) was propagated under standard conditions using […] medium containing 5% fetal calve serum and 2 mM glutamine. Primary prostate epithelial cell cultures (PrEC) derived from normal prostate (from Clonetics Inc. (San Diego, Calif.)) were grown under the same conditions as the tumor cell line except a serum-free medium optimized for the growth of such cultures was used (Clonetics Inc). For the experiments, LNCaP or PrEC cells were seeded in 96 well plates at a density of 10,000 cells per well. After 24 hours, the cells were treated with either vehicle (0.1% DMSO) or 50 μM Compound B (free base) solubilized in DMSO. After various drug treatment times ([…]) the cells were lysed and processed for measurement of histone-associated DNA as an indicator of apoptotic cell death (see, Piazza et al., Cancer Research 57: 2452-2459, 1997).

T1 sequence (O76074 46-539 limits assumed): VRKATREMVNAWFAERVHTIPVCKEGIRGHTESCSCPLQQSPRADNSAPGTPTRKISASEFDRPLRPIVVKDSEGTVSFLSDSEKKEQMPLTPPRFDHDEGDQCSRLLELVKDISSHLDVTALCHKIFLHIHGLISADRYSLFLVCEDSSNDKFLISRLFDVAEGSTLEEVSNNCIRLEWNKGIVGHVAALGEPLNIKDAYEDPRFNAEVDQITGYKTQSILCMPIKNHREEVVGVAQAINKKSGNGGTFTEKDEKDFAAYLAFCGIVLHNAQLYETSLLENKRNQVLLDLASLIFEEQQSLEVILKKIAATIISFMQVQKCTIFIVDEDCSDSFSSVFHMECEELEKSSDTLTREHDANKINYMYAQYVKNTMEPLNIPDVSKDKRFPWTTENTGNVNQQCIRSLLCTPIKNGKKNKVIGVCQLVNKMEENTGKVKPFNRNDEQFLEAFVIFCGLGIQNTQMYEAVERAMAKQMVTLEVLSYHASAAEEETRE

Structure (SMILES)	signs of toxicity ([1]; 50 mg/kg/day)	treatment-related effects ([1]; 500 mg/kg/day)	treatment-related effects ([1]; 2000 mg/kg/day)	JNK1 activation [2]	competition with cGMP for the cGMP binding sites of GST-cGB-PDE5 [3]	% Apoptosis ([4]; 0.35 μM)	% Apoptosis ([4]; 0.7 μM)	% Apoptosis ([4]; 1.5 μM)	caspase-3 activation (caspase-3 in SW480 cells)	DNA fragmentation (PrEC cells)
CC1=C(CC(=O)NCc2ccccc2)c2cc(F)ccc2/C1=C\c1ccncc1.Cl [Compound B, (Z)-5-fluoro-2-methyl-(4-pyridylidene)-3-(N-benzyl)indenylacetamide hydrochloride]	no observable signs of toxicity	an increase in absolute and relative liver weights in female rats	labored breathing and/or abnormal respiratory sounds, decreased weights gains and food consumption in male rats, and increased liver weights in female rats	activated JNK1	None of the PDE5 inhibitors showed any competition with cGMP	16%	27%	88%	led to activation of caspase-3	did not affect DNA fragmentation
CC1=C(CC(=O)O)c2cc(F)ccc2/C1=C\c1ccc(S(C)(=O)=O)cc1 [exisulind, 5-fluoro-2-methyl-1-(p-methylsulfonylbenzylidene)-3-indenylacetic acid]				activated JNK1	None of the PDE5 inhibitors showed any competition with cGMP				led to activation of caspase-3	
